In PubChem BioAssay (NCI):
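Method: 48-hour compound exposure of cells in 96-well plates, five concentrations, linear interpolation of endpoints. At the GI50, growth is halved. TGI marks complete inhibition of growth.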

What was measured:
Assay in all cases: NCI tumour cell line growth inhibition, 48 h
[1] = system: NCI-H226 lung
[2] = system: NCI-H23 lung
[3] = system: NCI-H460 lung
[4] = system: NCI-H522 lung
[5] = system: NCI/ADR-RES ovarian
[6] = system: OVCAR-3 ovarian
[7] = system: OVCAR-4 ovarian
[8] = system: OVCAR-5 ovarian
[9] = system: OVCAR-8 ovarian
[10] = system: PC-3 prostate
[11] = system: RPMI-8226 leukemia
[12] = system: RXF 393 renal
[13] = system: SF-268 CNS
[14] = system: SF-295 CNS
[15] = system: SF-539 CNS
[16] = system: SK-MEL-2 melanoma
[17] = system: SK-MEL-28 melanoma
[18] = system: SK-MEL-5 melanoma
[19] = system: SN12C renal
[20] = system: SNB-19 CNS
[21] = system: SNB-75 CNS
[22] = system: SR leukemia
[23] = system: SW-620 colon
[24] = system: T-47D breast
[25] = system: TK-10 renal
[26] = system: U251 CNS
[27] = system: UACC-257 melanoma
[28] = system: UACC-62 melanoma
[29] = system: UO-31 renal

## FC(F)(F)c1ccc(-c2cncn2-c2ccccc2)cc1
[1]
  TGI: 27.8 µM
[2]
  GI50: 10.4 µM
  TGI: 34.4 µM
[3]
  GI50: 16.9 µM
  TGI: > 100 µM
[4]
  GI50: 8.54 µM
  TGI: 25.2 µM
[5]
  GI50: 7.13 µM
  TGI: 30.2 µM
[6]
  GI50: 16.6 µM
  TGI: 38.9 µM
[7]
  GI50: 36 µM
  TGI: > 100 µM
[8]
  GI50: 23.5 µM
  TGI: 79.4 µM
[9]
  GI50: 13.6 µM
  TGI: 33.8 µM
[10]
  GI50: 13 µM
  TGI: 35.6 µM
[11]
  GI50: 5.75 µM
  TGI: 27.2 µM
[12]
  GI50: 16.6 µM
  TGI: 32.2 µM
[13]
  GI50: 36.6 µM
  TGI: > 100 µM
[14]
  GI50: 19.3 µM
  TGI: > 100 µM
[15]
  GI50: 15.6 µM
  TGI: 41.8 µM
[16]
  GI50: 18.2 µM
  TGI: 37.9 µM
[17]
  GI50: 39.1 µM
  TGI: > 100 µM
[18]
  GI50: 13 µM
  TGI: 26.9 µM
[19]
  GI50: 10.4 µM
  TGI: 23.5 µM
[20]
  GI50: 10.4 µM
  TGI: 38.5 µM
[21]
  GI50: 15.3 µM
  TGI: 40.7 µM
[22]
  GI50: 1.18 µM
  TGI: 7.89 µM
[23]
  GI50: 4.03 µM
  TGI: 57.1 µM
[24]
  GI50: 15.5 µM
  TGI: > 100 µM
[25]
  GI50: 24.2 µM
  TGI: > 100 µM
[26]
  GI50: 6.89 µM
  TGI: 30.6 µM
[27]
  GI50: 19.9 µM
  TGI: 49 µM
[28]
  GI50: 11.2 µM
  TGI: 24.9 µM
[29]
  GI50: 4.59 µM
  TGI: 21.5 µM
